Reference: patent US20100003217A1, “Compounds and Pharmaceutical Compositions for the Treatment of Viral Infections” (priority 2008, published 2010)

What was measured:
[1] = Stability in rat liver microsomes; assay type: in vitro ADME; conditions: rat microsomes 1 mg/mL, 60 min, 50 μM
Protocol: (§1) Disappearance of parent Compound 1 was used to evaluate the in vitro metabolism thereof. Relative levels of unchanged Compound 1 were measured by HPLC-UV method 1. Residual Compound 1 is reported as percent difference from time zero or control. The HPLC-UV system was as follows:
(§2) Incubations with liver microsomes or cytosol were conducted in a final volume of 0.1 mL per incubation time point. […] DMSO (final DMSO concentration was 0.1%) was incubated at 37° C. from 0-60 min with pooled microsomal protein (1.0 mg/mL), suspended in incubation buffer (0.1 M potassium phosphate, pH 7.4, 5 mM MgCl2, and 0.1 mM EDTA). The microsomal reaction was initiated by the addition of NADPH (3 mM final concentration). Incubations with (a) no protein or (b) no NADPH served as controls. Reactions were terminated by the addition of 0.2 mL of stop solution (acetonitrile). The samples were vortex-mixed for 30 sec and then centrifuged at 10,000×g for 10 min. The supernatant was dried using a Labconco CentriVap concentrator and the dry residue reconstituted in water, transferred to an HPLC glass vial and analyzed by HPLC-UV method 1 (described above).
(§3) Metabolic stability of the proposed metabolites was conducted by incubating the chemically synthesized standards Compound 2, Compound 4 and Compound 3 as described above for Compound 1. When possible, formation of Compound 5 was verified by incubating samples with alkaline phosphatase (10 U) for 60 min at 37° C.

[2] = Incubation with monkey liver cytosol; assay type: in vitro ADME; conditions: monkey cytosol 1 mg/mL, 2 hours, 10 μM
Protocol: (§4) Pooled liver cytosol (1.0 mg protein/mL) suspended in incubation buffer (0.1 M potassium phosphate, pH 7.4) was incubated for 2 hours at 37° C. with 10 μM Compound 1 from a stock solution in DMSO (final DMSO concentration was 0.1%); reaction was initiated with the addition of test article. Incubations with no protein served as control. Reactions were terminated by the addition of 0.1 mL of stop solution (acetonitrile). The samples were vortex-mixed for 30 sec and then centrifuged at 10,000×g for 10 min. The supernatant was dried using a Labconco CentriVap concentrator and the dry residue reconstituted in water, transferred to an HPLC glass vial and analyzed by HPLC-UV method 2 (described above).
as §3

[3] = Stability in human liver microsomes; assay type: in vitro ADME; conditions: human microsomes 1 mg/mL, 60 min, 50 μM
Protocol: as §1
Incubations with liver microsomes or cytosol were conducted in a final volume of 0.1 mL per incubation time point. […] The microsomal reaction was initiated by the addition of NADPH (3 mM final concentration). Incubations with (a) no protein or (b) no NADPH served as controls. Reactions were terminated by the addition of 0.2 mL of stop solution (acetonitrile). The samples were vortex-mixed for 30 sec and then centrifuged at 10,000×g for 10 min. The supernatant was dried using a Labconco CentriVap concentrator and the dry residue reconstituted in water, transferred to an HPLC glass vial and analyzed by HPLC-UV method 1 (described above).
as §3

[4] = Incubation with rat liver cytosol; assay type: in vitro ADME; conditions: rat cytosol 1 mg/mL, 2 hours, 10 μM
Protocol: as §4, §3

pig liver esterase = experiment: Incubation with pig liver esterase; assay type: in vitro ADME; conditions: Esterase 14 U, 60 min, 10 μM
Protocol: as §4, with “Pig” for “Pooled”, “esterase (14 U)” for “cytosol (1.0 mg protein/mL)”, “60 min” for “2 hours”, “controls.” for “control.”
as §3

[5] = Stability in monkey liver microsomes; assay type: in vitro ADME; conditions: monkey microsomes 1 mg/mL, 60 min, 50 μM
Protocol: as §1, §2, §3

[6] = Incubation with human liver cytosol; assay type: in vitro ADME; conditions: human cytosol 1 mg/mL, 2 hours, 10 μM
Protocol: as §4, §3

GS4.1 cells = experiment: Cytotoxicity assay (MTS), GS4.1 cells; assay type: cell-based, human; conditions: 3 days (NS4A-ELISA Assay)
Protocol: The cytotoxicity assay measures the viability of cells after treatment with a test compound for 3 days in either GS4.1 cells or Zluc cells. […] The cytotoxicity assay is summarized as follows. Ninety-six-well tissue culture plates were seeded with GS4.1 or Zluc cells. Antiviral compound solutions were made up freshly in medium as 2×-concentrated stocks. Eight additional 3-fold drug dilutions were prepared from these stocks in medium for a total of 9 dilutions. At least four hours after the cells were seeded, drug treatment was initiated by adding one volume of each 2×-concentrated drug dilution to one volume of cells/medium in the tissue culture plates. Cells were then incubated for 3 days at 37° C./5% CO2. After 3 days of treatment, the CellTiter 96® Aqueous One Solution cell proliferation assay (Promega) was performed by adding the MTS solution to each well. The plates were then incubated at 37° C./5% CO2 for 3.5 hours. Plates were then read in a Victor^3V 1420 multilabel counter (Perkin Elmer) and CC50 concentrations were determined using Microsoft Excel and XLfit 4.1 software.

[7] = tested on: HCV genotype 1b replicon (GS4.1 cells); experiment: HCV replicon assay (NS4A ELISA); assay type: cell-based, hepatitis C virus; conditions: 3 days
Protocol: The biological activity of Compound 1, diastereomer 1 and diastereomer 2 was measured by monitoring expression of the NS4A protein by enzyme-linked immunosorbent assay (ELISA) and by luciferase assay as described below:
The HCV replicon assay measures the ability of a test compound to inhibit HCV replication in cell culture after 3 days of treatment in a human hepatoma cell line (Huh-7) bearing the HCV genotype 1b replicon (GS4.1 cells). The inhibition of HCV replication was measured by quantification of viral NS4A protein using an enzyme-linked immunosorbent assay (ELISA). […] Additionally, the replicon contains the neomycin phosphotransferase gene under the control of the HCV promoter (Source: Dr. Christoph Seeger, Fox Chase Cancer Center, Philadelphia, Pa.).
The NS4A ELISA assay is summarized as follows. Ninety-six-well tissue culture plates were seeded with GS4.1 cells. Antiviral compound solutions were made up freshly in medium as 2×-concentrated stocks. Eight additional 3-fold drug dilutions were prepared from these stocks in medium for a total of 9 dilutions. At least four hours after GS4.1 cells were seeded, drug treatment was initiated by adding one volume of each 2× concentrated drug dilution to one volume of cells/medium in the tissue culture plates. Cells were then incubated for 3 days at 37° C./5% CO2.
The media/compound was then removed from the plates and cells were fixed with acetone:methanol, washed three times with a wash solution, and then blocked for 1 hour with 10% fetal bovine serum in a balanced salt solution. Cells were washed three times and incubated with an anti-hepatitis C NS4A monoclonal antibody (Virogen Corp.) for 2 hours at 37° C. […] The reaction was stopped with diluted sulfuric acid (Mallinckrodt Chemicals) and absorbance measured on a Victor^3V 1420 multilabel counter (Perkin Elmer). EC50 values were calculated from dose response curves from the resulting best-fit equations determined by Microsoft Excel and XLfit 4.1 software.

[8] = tested on: HCV genotype 1b replicon (Zluc cells); experiment: HCV luciferase replicon assay; assay type: cell-based, hepatitis C virus; conditions: 3 days
Protocol: The HCV luciferase replicon assay measures the ability of a test compound to inhibit HCV replication in cell culture after 3 days of treatment in a human hepatoma cell line (Huh-7) bearing the HCV genotype 1b replicon and a luciferase-neomycin phosphotransferase fusion gene. The inhibition of HCV replication was measured by quantification of luciferase protein expression. The HCV luciferase replicon was constructed by fusing a luciferase gene to the amino terminus of the neomycin phosphotransferase gene of the ZS11 HCV replicon. The ZS11 HCV replicon (Zhu Q, Guo J-T, and Seeger C, 2003) is derived from the SP1 replicon, but contains three cell culture-adapted mutations: E1202G (NS3), S22041 (NS5A), and D2254E (NS5A). These mutations allow for efficient in vitro replication. The luciferase reporter gene was amplified from the pGL4.13[luc2/SV40] vector (Promega Corp.). The replicon resulting from the luciferase-neomycin fusion (ZS11-luc) was stably-transfected into Huh-7 cells, yielding the Zluc cell line.
The luciferase replicon assay is summarized as follows: Solid white 96-well tissue culture plates (BD Falcon) were seeded with Zluc cells. Antiviral compound solutions were made up freshly in medium as 2×-concentrated stocks. Eight additional 3-fold drug dilutions were prepared from these stocks in medium for a total of 9 dilutions. At least four hours after Zluc cells were seeded, drug treatment was initiated by adding one volume of each 2×-concentrated drug dilution to one volume of cells/medium in the tissue culture plates. Cells were then incubated for 3 days at 37° C./5% CO2.
The media/compound was then removed from the plates and the ONE-glo Luciferase assay reagent (Promega) was added to each well. The assay plates were shaken for 3 minutes at room temperature and luciferase activity for each well was measured with a 1 sec read time on the Victor^3V multilabel counter using a 700 nm cut-off filter (Perkin Elmer). EC50 values were calculated from dose response curves from the resulting best-fit equations determined by Microsoft Excel and XLfit 4.1 software.

SMILES: C[C@@]1(O)[C@H](O)[C@@H](COP(N)(=O)O)O[C@H]1n1cnc2c(=O)[nH]c(N)nc21 [Compound 4, {9-[(2R)2-C-methyl-β-D-ribo-furanosyl]-guanin}-5′-yl phosphoramidate]
- % Residual compound following incubation with liver microsomes ([1]; NADPH): 89%
- % Residual compound following incubation with liver microsomes ([1]; No Cofactor): 100%
- Residual compound following incubation with liver cytosol [2]: 103%
- % Residual compound following incubation with liver microsomes ([3]; NADPH): 93%
- % Residual compound following incubation with liver microsomes ([3]; No Cofactor): 100%
- Residual compound following incubation with liver cytosol [4]: 101%
- Residual compound following incubation with pig liver esterase (pig liver esterase): 100%
- % Residual compound following incubation with liver microsomes ([5]; NADPH): 83%
- % Residual compound following incubation with liver microsomes ([5]; No Cofactor): 100%
- Residual compound following incubation with liver cytosol [6]: 100%

SMILES: CC(C)(CO)C(=O)SCCOP(=O)(NCc1ccccc1)OC[C@H]1O[C@@H](n2cnc3c(=O)[nH]c(N)nc32)[C@](C)(O)[C@@H]1O (single isomer, unassigned; diastereomer 1) [Diastereomer 1]
- CC50 (GS4.1 cells): > 100000 nM
- EC50 [7]: 704 ± 372 nM
- EC50 [8]: 165 ± 23 nM
